The target of test [1] is T1, glucocorticoid receptor (Rattus norvegicus, UniProt P06536).
T1 construct: gene Nr3c1; native receptor in R3230AC tumour cytosol (8-9 S component)
T1 sequence (P06536 1-795): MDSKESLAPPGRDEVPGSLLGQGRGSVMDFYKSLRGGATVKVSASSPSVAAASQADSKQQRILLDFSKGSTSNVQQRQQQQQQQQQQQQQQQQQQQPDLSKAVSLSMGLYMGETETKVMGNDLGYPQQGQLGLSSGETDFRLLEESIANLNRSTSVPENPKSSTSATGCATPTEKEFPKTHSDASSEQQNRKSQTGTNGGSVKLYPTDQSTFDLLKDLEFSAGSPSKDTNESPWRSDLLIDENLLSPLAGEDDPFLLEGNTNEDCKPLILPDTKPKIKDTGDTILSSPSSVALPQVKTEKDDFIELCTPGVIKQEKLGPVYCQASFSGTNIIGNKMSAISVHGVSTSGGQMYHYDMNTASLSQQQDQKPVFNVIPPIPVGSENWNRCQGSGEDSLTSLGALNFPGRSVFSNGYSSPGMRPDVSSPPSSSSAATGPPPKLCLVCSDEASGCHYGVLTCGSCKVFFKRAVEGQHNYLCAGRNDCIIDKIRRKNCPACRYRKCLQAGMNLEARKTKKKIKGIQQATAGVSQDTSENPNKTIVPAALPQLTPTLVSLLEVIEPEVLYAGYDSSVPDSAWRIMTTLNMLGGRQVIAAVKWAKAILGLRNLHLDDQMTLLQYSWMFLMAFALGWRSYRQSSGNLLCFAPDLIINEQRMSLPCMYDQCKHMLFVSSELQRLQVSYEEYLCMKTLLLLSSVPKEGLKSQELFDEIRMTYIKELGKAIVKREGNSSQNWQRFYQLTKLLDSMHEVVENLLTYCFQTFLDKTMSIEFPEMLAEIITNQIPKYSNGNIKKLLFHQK
Description: competition with [3H]-triamcinolone acetonide, sucrose gradient centrifugation (weak; no effect at […]). Conditions: read-out: % [3H]-triamcinolone acetonide bound at 5 umol/l.

Test [2] addresses T1, glucocorticoid receptor. In words: competition with [3H]-triamcinolone acetonide, sucrose gradient centrifugation. The conditions noted are these: read-out: % [3H]-triamcinolone acetonide bound at 1 umol/l.
For test [3], the target named is T1, glucocorticoid receptor. The description is as above. The conditions noted are these: read-out: % [3H]-triamcinolone acetonide bound at 5 umol/l.

On to `C[C@]12CC[C@@H]3c4ccc(O)cc4CC[C@H]3[C@@H]1CC[C@@H]2O` [Oestradiol-17β], for which the activity at 5 µM at glucocorticoid receptor [1] turned out to be 45%.
With `C[C@]12C=CC(=O)C=C1CC[C@H]1[C@@H]3C[C@@H](O)[C@](O)(C(=O)CO)[C@@]3(C)C[C@H](O)[C@@]12F` [Triamcinolone], the activity at 1 µM on glucocorticoid receptor [2] stood at 14%.
As to `C[C@]12CCC(=O)C=C1CC[C@@H]1[C@@H]2CC[C@@]2(C)[C@H]1CC[C@]2(O)C(=O)CO` [cortexolone], the activity at 5 µM at glucocorticoid receptor [3] worked out at 25%.

The values above are taken from publication PMC2008813 (British Journal of Cancer, 1973).
